In brackets after ≈: the same amount, converted by molar mass. Read-outs that look alike come from different tables or passages of the source.
Assays:
[1] = wide pH range; cited from earlier work
[2] = 70° C.; 20 min (10% hydrochloric acid), 180 min (ascorbic acid); cited from earlier work
[3] = Stability to ambient environment (air, light, oxidation)
[4] = Nitrosation in gastric juice or simulated gastric juice (Griess reagent, TLC); details: for NC (nitrosocimetidine) found: 75 ml simulated gastric juice, 37° C., pH 1.0-3.5, ascorbate-nitrite 6:1 molar ratio
[5] = system: desoxyribonucleic acid (DNA); details: cimetidine 250 mg/kg with nitrite 80 mg/kg; cited from earlier work
gastric carcinoma = details: in vivo; cited from earlier work
pH of aqueous solution = assay type: physicochemical
rats = details: eight days treatment, 500 mg/kg; cited from earlier work

O=C1O[C@H]([C@@H](O)CO)C(O)=C1O [ascorbic acid, 3-oxo-L-gulofuranelactone (enolic form)]
inhibition of N-nitroso compound formation [1]: most effective over a wide pH range
denitrosation [2]: innefective

Nc1n[s+]([O-])nc1NCCCOc1cccc(CN2CCCCC2)c1 [Example 14, CM.5 antagonist L-ascorbate]
water solubility (in words) (Solubility in water): water soluble
stability to air, light, ambient conditions [3]: has to be preserved from the air and light

CN/C(=N/CCSCc1nc[nH]c1C)NC#N [cimetidine, N"-cyano-N'-methyl-N-2-(5-methyl-1H-imidazol-4-yl)methylthioethylguanidine]
NCD (nitroso compound derivatives) determined ([4]; 400 mg cimetidine, 36.4 mg sodium nitrite, 75 ml gastric juice, pH 1.5, 37° C., 60 min): 100 ppm
evidence of DNA damage [5]: no evidence of desoxyribonucleic acid (DNA) damage
gastric carcinoma related with treatment (gastric carcinoma): appearance of a gastric carcinoma

NC(N)=Nc1nc(CSCCC(N)=NS(N)(=O)=O)cs1 [Example 12, Famotidine L-ascorbate]
solubility (Solubility in water; water, Solubility in water, room temperature where printed): 75 mg/mL (≈ 222 mM)
stability to air, light, ambient conditions [3]: has to be preserved from the air and light
pH of aqueous solution (pH of aqueous solution): 5.9
pH of aqueous solution (pH of aqueous solution; listed as famotidine ascorbate): 5.6

CN/C(=N/CCSCc1nc[nH]c1C)NC#N [Example 16, Cimetidine diascorbate]
NC (nitrosocimetidine) found [4]: 0.13 ppm
NC produced in cases of hyperchlorhydria ([4]; abnormally high nitrite concentrations): 0.08 ppm
stability to air, light, ambient conditions [3]: has to be preserved from the air and light

Cc1[nH]cnc1CSCCN=C(NC#N)N(C)N=O [NC, nitrosocimetidine]
toxic effect (rats): no toxic effect

Cc1ccc(Cc2c[nH]c(NCCSCc3ccc(CN(C)C)o3)nc2=O)cn1 [Example 15, CM.10 antagonist L-ascorbate]
water solubility (in words) (Solubility in water): water soluble

CNC(=NC#N)NCCSCc1nc[nH]c1C [Example 1, Cimetidine L-ascorbate]
NC (nitrosocimetidine) found ([4]; listed as cimetidine ascorbate): 0.18 ppm
water solubility (in words) (Solubility in water): soluble in water
pH of aqueous solution (pH of aqueous solution): 4.5
outcome of relapse and improvement maintenance cases (duodenal ulcer; maintenance doses 680 mg ascorbate or 860 mg diascorbate, one year continuously, two years with breaks): normality being achieved
outcome in males with duodenal ulcer diagnosis (duodenal ulcer; males aged 55-60 years, usual periods of cimetidine medication): back to normal

CNC(=C[N+](=O)[O-])NCCSCc1ccc(CN(C)C)o1 [Example 18, Ranitidine diascorbate]
TLC spot of nitroso derivative at Rf = 0.83 ([4]; gastric juice pH 1.5, 318 mg diascorbate, 18.2 mg sodium nitrite, 60 min): did not appear

Cl [hydrochloric acid]
denitrosation [2]: innefective

CNC(=C[N+](=O)[O-])NCCSCc1ccc(CN(C)C)o1 [ranitidine, N-(2-(((5-((dimethylamino)methyl)-2-furanyl)methyl)thio)ethyl)N'-methyl-2-nitro-1,1-ethenediamine, reference compound]
formation of nitroso compounds / nitrosatability ([4]; gastric juice conditions): causes the formation of nitroso derivatives and nitrosated degradation products

CNC(=C[N+](=O)[O-])NCCSCc1ccc(CN(C)C)o1 [Example 8, Ranitidine L-ascorbate]
pH of aqueous solution (pH of aqueous solution): 3.5

Reference: patent US4749790A, “Process for preparing H2 receptor antagonist ascorbate compounds” (priority 1985, dated 1988)
